Results on five compounds are retold here after ChEMBL document CHEMBL5335823, “Synthesis, biological evaluation, and stability studies of raloxifene mono- and bis-sulfamates as dual-targeting agents” (Bioorg Med Chem, 2024).

Data set [1] concerns the target T1, Steryl-sulfatase (Homo sapiens, UniProt P08842).
T1 sequence (P08842 whole entry): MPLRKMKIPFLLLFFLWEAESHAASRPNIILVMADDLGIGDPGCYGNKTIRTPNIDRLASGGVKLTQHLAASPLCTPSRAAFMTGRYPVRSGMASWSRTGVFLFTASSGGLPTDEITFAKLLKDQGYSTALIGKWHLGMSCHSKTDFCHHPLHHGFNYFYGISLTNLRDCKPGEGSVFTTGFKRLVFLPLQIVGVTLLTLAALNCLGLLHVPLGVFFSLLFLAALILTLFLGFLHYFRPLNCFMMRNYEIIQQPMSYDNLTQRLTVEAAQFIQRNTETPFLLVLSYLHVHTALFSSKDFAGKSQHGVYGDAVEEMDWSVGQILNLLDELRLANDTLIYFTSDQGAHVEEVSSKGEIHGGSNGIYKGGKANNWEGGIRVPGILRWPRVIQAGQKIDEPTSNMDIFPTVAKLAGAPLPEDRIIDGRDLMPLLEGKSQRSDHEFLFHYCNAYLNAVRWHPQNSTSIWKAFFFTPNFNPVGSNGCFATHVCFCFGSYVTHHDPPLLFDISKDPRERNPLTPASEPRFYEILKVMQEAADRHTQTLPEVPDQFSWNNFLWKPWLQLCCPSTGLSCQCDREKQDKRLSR
In words: Inhibition of STS in human JEG-3 cell lysates assessed as inhibition of estrone E1 formation using [3H]estrone sulfate as substrate incubated for 1 hr in presence of E1S by scintillation spectrometry. The conditions noted are these: for IC50: jeg-3; for pIC50: read-out: IC50. Type of data set: subcellular.

Data set [2] deals with T1, Steryl-sulfatase. The data set is described as follows: Inhibition of STS in human JEG-3 cells assessed as inhibition of estrone E1 formation using [3H]estrone sulfate as substrate incubated for 20 hrs in presence of E1S by scintillation spectrometry. Format: cell-based. The settings on record: for pIC50: read-out: IC50.
Data set [3] is described as follows: Stability of the compound in wet DMSO-d6 assessed as parent compound remaining at 6.2 umol measured at room temperature after 6 days by 1HNMR spectroscopy. Type of data set: physicochemical. The settings on record: at 6.2 µmol, time 6 day, read-out: Stability.
Data set [4] is described as follows: Stability of the compound in wet DMSO-d6 assessed as parent compound remaining at 6.2 umol measured at room temperature after 45 days by 1HNMR spectroscopy. Type of data set: physicochemical. The settings on record: at 6.2 µmol, time 45 day, read-out: Stability.
Data set [5] has as its system T47D. The data set is described as follows: Antiproliferative activity against human T47D cells assessed as inhibition of cell growth at 10 uM incubated for 5 days by crystal violet staining based analysis. Format: functional. The conditions noted are these: 120 h, time 5 day.
The subject of data set [6] is T47D. In words: Antiproliferative activity against human T47D cells assessed as inhibition of cell growth incubated for 5 days by crystal violet staining based analysis. Type of data set: functional. The settings on record: 120 h, time 5 day.
Data set [7] has as its target T2, Estrogen receptor (Homo sapiens) (UniProt P03372).
T2 sequence (whole entry): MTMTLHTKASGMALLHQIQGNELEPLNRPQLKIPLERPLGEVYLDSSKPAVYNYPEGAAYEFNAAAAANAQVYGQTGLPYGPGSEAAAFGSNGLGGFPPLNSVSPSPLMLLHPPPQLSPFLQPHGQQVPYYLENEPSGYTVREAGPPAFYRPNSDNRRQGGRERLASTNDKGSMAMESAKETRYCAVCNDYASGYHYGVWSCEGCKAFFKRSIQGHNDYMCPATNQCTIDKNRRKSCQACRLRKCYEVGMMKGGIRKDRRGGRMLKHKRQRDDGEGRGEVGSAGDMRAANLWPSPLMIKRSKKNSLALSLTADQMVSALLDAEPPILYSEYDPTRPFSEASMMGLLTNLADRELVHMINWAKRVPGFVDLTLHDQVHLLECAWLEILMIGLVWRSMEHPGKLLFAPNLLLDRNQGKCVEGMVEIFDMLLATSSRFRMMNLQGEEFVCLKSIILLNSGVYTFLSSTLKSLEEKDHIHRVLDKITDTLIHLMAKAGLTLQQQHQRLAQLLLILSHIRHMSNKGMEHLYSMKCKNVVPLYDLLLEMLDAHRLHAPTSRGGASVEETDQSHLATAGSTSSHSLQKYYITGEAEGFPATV
In words: Antagonist activity at ER-alpha (unknown origin) at 10 microM by ER-alpha coactivator assay.

Data set [8] is described as follows: Stability of the compound in wet DMSO-d6 assessed as parent compound remaining at 8 umol measured at room temperature after 45 days by 1HNMR spectroscopy. Format: physicochemical. The conditions noted are these: at 8 µmol, time 45 day, read-out: Stability.
A further data set concerns CCRF-CEM. In words: Antiproliferative activity against human CCRF-CEM cells assessed as inhibition of cell growth measured after 72 hrs by CellTiter-Glo assay. Format: functional. A general note: Cellular ATP, detected with luciferase, serves as a proxy for viable cell number.
Another data set deals with HOP-62. The data set is described as follows: Antiproliferative activity against human HOP-62 cells assessed as inhibition of cell growth measured after 72 hrs by CellTiter-Glo assay. Format: functional.
The test system of a further data set is HCT-116. The data set is described as follows: Antiproliferative activity against human HCT-116 cells assessed as inhibition of cell growth measured after 72 hrs by CellTiter-Glo assay. Format: functional.
The next data set deals with SF-539. The data set is described as follows: Antiproliferative activity against human SF-539 cells assessed as inhibition of cell growth measured after 72 hrs by CellTiter-Glo assay. Type of data set: functional.
Another data set concerns UACC-62. The data set is described as follows: Antiproliferative activity against human UACC-62 cells assessed as inhibition of cell growth measured after 72 hrs by CellTiter-Glo assay. Format: functional.
The subject of the next data set is OVCAR-4. The data set is described as follows: Antiproliferative activity against human OVCAR-4 cells assessed as inhibition of cell growth measured after 72 hrs by CellTiter-Glo assay. Format: functional.
Another data set deals with SN12C. The data set is described as follows: Antiproliferative activity against human SN12C cells assessed as inhibition of cell growth measured after 72 hrs by CellTiter-Glo assay. Type of data set: functional.
In another data set the test system is DU-145. The data set is described as follows: Antiproliferative activity against human DU-145 cells assessed as inhibition of cell growth measured after 72 hrs by CellTiter-Glo assay. Format: functional.
The test system of the next data set is MDA-MB-231. The data set is described as follows: Antiproliferative activity against human MDA-MB-231 cells assessed as inhibition of cell growth measured after 72 hrs by CellTiter-Glo assay. Format: functional.
The nature of data set [9]: Stability of the compound in wet DMSO-d6 assessed as parent compound remaining at 7.9 umol measured at room temperature after 6 days by 1HNMR spectroscopy. Format: physicochemical. The conditions noted are these: at 7.9 µmol, time 6 day, read-out: Stability.
The nature of data set [10]: Stability of the compound in wet DMSO-d6 assessed as parent compound remaining at 7.9 umol measured at room temperature after 30 days by 1HNMR spectroscopy. The settings on record: at 7.9 µmol, time 30 day, read-out: Stability. Type of data set: physicochemical.

pIC50: −log10 of the molar value.

Take `Cl.O=C(c1ccc(OCCN2CCCCC2)cc1)c1c(-c2ccc(O)cc2)sc2cc(O)ccc12` [RALOXIFENE HYDROCHLORIDE]: on Steryl-sulfatase [1], the IC50 entry is recorded as “Not Active”.
The pIC50 is −log10 of the IC50, conventionally taken in molar units. Regarding `NS(=O)(=O)Oc1ccc2c(C(=O)c3ccc(OCCN4CCCCC4)cc3)c(-c3ccc(O)cc3)sc2c1`, the negative logarithm of the IC50 (pIC50) at Steryl-sulfatase [1] is 5.68; at Steryl-sulfatase [2] it was 6.48. Moreover, the remaining at 144 h, 6.2 umol in data set [3] was found to be 70%. For the same compound, the remaining at 1080 h, 6.2 umol in data set [4] came out at 18%.
The term inhibition denotes the share of the control response that was lost under treatment. For orientation: GI50 means the concentration at which growth is held to half of that of the control. Consider `O=C(c1ccc(OCCN2CCCCC2)cc1)c1c(-c2ccc(O)cc2)sc2cc(O)ccc12` [RALOXIFENE], for which the IC50 entry at Steryl-sulfatase [1] and on Steryl-sulfatase [2] (jeg-3) was “Not Active” each time. In addition, the inhibition at 10 µM in the data set on T47D [5] was 78%. Also, the GI50 in the data set on T47D [6] stood at 6.89 µM.
Regarding `NS(=O)(=O)Oc1ccc(-c2sc3cc(O)ccc3c2C(=O)c2ccc(OCCN3CCCCC3)cc2)cc1`, the figures for the pIC50 on Steryl-sulfatase [1] and at Steryl-sulfatase [2] were 5.47 and 6.22, respectively. The compound also registered an inhibition in [7] of 27%. Besides, the inhibition at 10 µM in the data set on T47D [5] worked out at 12%. In addition, the remaining at 1080 h, 8 umol in data set [8] is 12%.
Regarding `NS(=O)(=O)Oc1ccc(-c2sc3cc(OS(N)(=O)=O)ccc3c2C(=O)c2ccc(OCCN3CCCCC3)cc2)cc1`, the pIC50 at Steryl-sulfatase [1] was 7.02; at Steryl-sulfatase [2], 7.91. The GI50 in the data set with T47D [6] stood at 7.12 µM; with CCRF-CEM, 9.02 µM; with HOP-62 it was 14.8 µM; with HCT-116, 14.6 µM; with SF-539, 13.1 µM; in the data set with UACC-62, 1.47 µM. In addition, the GI50 with OVCAR-4 is 10.6 µM; with SN12C it was 1.61 µM; in the data set with DU-145, 16 µM; in the data set on MDA-MB-231, 1.34 µM. The remaining at 144 h, 7.9 umol in data set [9] amounted to 27%. The remaining at 720 h, 7.9 umol in data set [10] came out at 0%.
